The results in this text go back to patent publication US7750150B2, “Process for producing acid adduct salt of polyacidic base compound” (Kowa Co., Ltd., priority 2003, dated 2010).

One series in a line: Oral absorption. Type of series: in vivo. The following applies: statement in words, background art.
Series [1] is described as follows: Solubility of the acid addition salts. To be noted: for water solubility: statement in words, background art.
The nature of the next series: pH of aqueous solution. Format: physicochemical.
Series [2] is described as follows: Thermal stability (HPLC purity after storage relative to before storage). Type of series: physicochemical. The procedure: (Note) Thermal Stability:
The purity of each acid addition salt of the polyacidic basic compound stored at 80° C. for 10 days was determined by HPLC measurement relative to its purity before the storage with the proviso that the disulfate 1.5-water adduct and the dimaleate were stored at 60° C. for 7 days before their storage at 80° C. for 10 days.

A short description of series [3]: Hygroscopicity (weight change on storage at 25° C. and 83% relative humidity). To be noted: weight change after 4 days at 25° C. and 83% relative humidity. Format: physicochemical. The procedure:
(§1) A weight change of each acid addition salt was measured after storing it for 4 days under conditions of 25° C. and 83% relative humidity. • TG: Thermogravimetric Analysis • DSC: Differential Scanning Calorimetry

The nature of series [4]: Powder X-ray diffraction (degree of crystallinity). Format: physicochemical. The source says: (§2) A powder X-ray diffraction pattern of 2-[4-[2-(benzimidazol-2-ylthio)ethyl]piperazin-1-yl]-N-[2,4-bis(methylthio)-6-methyl-3-pyridyl]acetamide monohydrochloride 0.9-water adduct is illustrated in FIG. 1, and the results of its TG (thermogravimetric analysis)-DSC (differential scanning calorimetry) measurements are shown in FIG. 2. Further, a powder X-ray diffraction pattern of 2-[4-[2-(benzimidazol-2-ylthio)ethyl]piperazin-1-yl]-N-[2,4-bis(methylthio)-6-methyl-3-pyridyl]acetamide tetrahydrochloride 2-water adduct is illustrated in FIG. 3, and the results of its TG-DSC measurements are shown in FIG. 4. A powder X-ray diffraction pattern of 2-[4-[2-(benzimidazol-2-ylthio)ethyl]piperazin-1-yl]-N-[2,4-bis(methylthio)-6-methyl-3-pyridyl]acetamide disulfate 1.5-water adduct is illustrated in FIG. 5, and the results of its TG-DSC measurements are shown in FIG. 6. A powder X-ray diffraction pattern of 2-[4-[2-(benzimidazol-2-ylthio)ethyl]piperazin-1-yl]-N-[2,4-bis(methylthio)-6-methyl-3-pyridyl]acetamide monosulfate 4-water adduct is illustrated in FIG. 7, and the results of its TG-DSC measurements are shown in FIG. 8. A powder X-ray diffraction pattern of 2-[4-[2-(benzimidazol-2-ylthio)ethyl]piperazin-1-yl]-N-[2,4-bis(methylthio)-6-methyl-3-pyridyl]acetamide monosulfate is illustrated in FIG. 9, and the results of its TG-DSC measurements are shown in FIG. 10. A powder X-ray diffraction pattern of 2-[4-[2-(benzimidazol-2-ylthio)ethyl]piperazin-1-yl]-N-[2,4-bis(methylthio)-6-methyl-3-pyridyl]acetamide dimaleate is illustrated in FIG. 11, and the results of its TG-DSC measurements are shown in FIG. 12.

Series [5] is described as follows: TG (thermogravimetric analysis). The following applies: weight change on heating. Type of series: physicochemical.
Description: as §2, §1

Setting [6] is: stored at 60° C. for 7 days before storage at 80° C. for 10 days.
[7] abbreviates: listed as 2-[4-[2-(benzimidazol-2-ylthio)ethyl]piperazin-1-yl]-N-[2,4-bis(methylthio)-6-me.
The mark [8] stands for this setting: listed as tetrahydrochloride 2-water adduct.

Read-outs that look alike come from different tables or passages of the source.

Broadly, the melting point is the temperature, or range, at which the solid turns liquid. Turning to `Cc1cc(OCC(F)(F)F)c(NC(=O)CN2CCN(CCSc3nc4cc(F)c(F)cc4[nH]3)CC2)c(OCC(F)(F)F)n1.Cl`, the melting point was in the range of 186 to 187 °C.

For the compound `CSc1cc(C)nc(SC)c1NC(=O)CN1CCN(CCSc2nc3ccccc3[nH]2)CC1` [2-[4-[2-(benzimidazol-2-ylthio)ethyl]piperazin-1-yl]-N-[2,4-bis(methylthio)-6-methyl-3-pyridyl]acetamide], the oral absorption entry in the series “Oral absorption” is given as “little well”. Further, in [1], the water solubility entry was “too low”.

What is called Solubility is the concentration that dissolves in the medium under given conditions. For `CSc1cc(C)nc(SC)c1NC(=O)CN1CCN(CCSc2nc3ccccc3[nH]2)CC1.O=C(O)/C=C\C(=O)O.O=C(O)/C=C\C(=O)O` [Dimaleate, 2-[4-[2-(benzimidazol-2-ylthio)ethyl]piperazin-1-yl]-N-[2,4-bis(methylthio)-6-methyl-3-pyridyl]acetamide dimaleate], the “pH of 1% aq. Solution” value in “pH of aqueous solution” is given as 2.62. Moreover, the Thermal stability in series [2] (setting [6]) was 93.1%. This compound also came in with a Hygroscopicity in [3] of 2%. Also, in [4], the “Powder X-ray” value is listed as “Low”. In the series “physchem”, the Solubility is 15 mg/mL.

On to `CSc1cc(C)nc(SC)c1NC(=O)CN1CCN(CCSc2nc3ccccc3[nH]2)CC1.CSc1cc(C)nc(SC)c1NC(=O)CN1CCN(CCSc2nc3ccccc3[nH]2)CC1.O.O.O.O=S(=O)(O)O.O=S(=O)(O)O.O=S(=O)(O)O.O=S(=O)(O)O` [Disulfate 1.5-water adduct, 2-[4-[2-(benzimidazol-2-ylthio)ethyl]piperazin-1-yl]-N-[2,4-bis(methylthio)-6-methyl-3-pyridyl]acetamide disulfate 1.5-water adduct], for which the “pH of 1% aq. Solution” value in “pH of aqueous solution” is reported as 2.00. For the same compound, the Thermal stability in [2] (setting [6]) turned out to be 99.6%. Besides, in [3], the Hygroscopicity turned out to be 10%. In series [4], the “Powder X-ray” value is recorded as “Low”. The TG result in [5] is on record as “No change until”. In addition, in series [1], the Solubility is given as more than 1000 mg/mL.

With `CSc1cc(C)nc(SC)c1NC(=O)CN1CCN(CCSc2nc3ccccc3[nH]2)CC1.Cl.O` [Monohydrochloride 0.9-water adduct, 2-[4-[2-(benzimidazol-2-ylthio)ethyl]piperazin-1-yl]-N-[2,4-bis(methylthio)-6-methyl-3-pyridyl]acetamide monohydrochloride 0.9-water adduct], in “pH of aqueous solution” (0.05% aq. solution), the “pH of aq. Solution” value is recorded as 5.2 (0.05%). Also, the Thermal stability in series [2] (stored at 80° C. for 10 days) was 99.2%; in [2] (stored at 80° C. for 10 days, listed as 2-[4-[2-(benzimidazol-2-ylthio)ethyl]piperazin-1-yl]-N-[2,4-bis(methylthio)-6-me) it was “excellent in thermal stability”. The Hygroscopicity entry in series [3] is reported as “None”; in series [3] (setting [7]) it was “no hygroscopicity”. Moreover, the “Powder X-ray” value in series [4] (setting [7]) is reported as “high degree of crystallinity”. In addition, the TG result in series [5] is listed as “No change until”; in series [5] (setting [7]) it was “without any substantial weight change”. Also, the Solubility in [1] is 0.5 mg/mL.

As for `CSc1cc(C)nc(SC)c1NC(=O)CN1CCN(CCSc2nc3ccccc3[nH]2)CC1.O.O.O.O.O=S(=O)(O)O` [Monosulfate 4-water adduct, 2-[4-[2-(benzimidazol-2-ylthio)ethyl]piperazin-1-yl]-N-[2,4-bis(methylthio)-6-methyl-3-pyridyl]acetamide monosulfate 4-water adduct], in the series “pH of aqueous solution” (0.5% aq. solution), the “pH of aq. Solution” value is listed as 3.2 (0.5%). Also, in series [2] (stored at 80° C. for 10 days), the Thermal stability was 99.4%. Further, in series [3], the Hygroscopicity result is “None”. Moreover, the TG entry in [5] is listed as “Decreased 10%”. Besides, in series [1], the Solubility is given as 5 mg/mL.

For the compound `CSc1cc(C)nc(SC)c1NC(=O)CN1CCN(CCSc2nc3ccccc3[nH]2)CC1.O=S(=O)(O)O` [Monosulfate, 2-[4-[2-(benzimidazol-2-ylthio)ethyl]piperazin-1-yl]-N-[2,4-bis(methylthio)-6-methyl-3-pyridyl]acetamide monosulfate], the “pH of aq. Solution” value in “pH of aqueous solution” (0.5% aq. solution) is on record as 3.2 (0.5%). In series [3], this compound came in with a Hygroscopicity of 15%. The “Powder X-ray” value in series [4] is on record as “Low”. In series [5], the TG result is listed as “No change until”. Further, the Solubility in series [1] amounted to 200 mg/mL.

In the case of `CSc1cc(C)nc(SC)c1NC(=O)CN1CCN(CCSc2nc3ccccc3[nH]2)CC1.Cl.Cl.Cl.Cl.O.O` [Tetrahydrochloride 2-water adduct, 2-[4-[2-(benzimidazol-2-ylthio)ethyl]piperazin-1-yl]-N-[2,4-bis(methylthio)-6-methyl-3-pyridyl]acetamide tetrahydrochloride 2-water adduct], in the series “pH of aqueous solution”, the “pH of 1% aq. Solution” value was found to be 1.97. The compound further gave a Thermal stability in series [2] (stored at 80° C. for 10 days) of 98.5%. For the same compound, the Hygroscopicity in [3] is 10%; in series [3] (setting [8]) it was “high hygroscopicity”. For the same compound, the “Powder X-ray” value in series [4] was “Low”; in series [4] (setting [8]) it was “low degree of crystallinity”. Besides, in series [5], the TG result is “Gradual removal”. In “Oral absorption”, the oral absorption entry is on record as “substantially improved”. In addition, the Solubility in series [1] is given as more than 1000 mg/mL. In addition, the water solubility entry in series [1] is “substantially improved”.
